Laboratory results taken from US12685717B2, “Suppression of inflammasome activation” (Washington University, priority 2020, dated 2026).

How the values were obtained:
Assay type in all cases: cell-based
[1] = tested on: SWELL1 current; experiment: Hypotonically-induced currents in wild-type primary macrophages; conditions: wild-type (WT) primary macrophages, 210 mOsm; FIG. 7
[2] = tested on: SWELL1 KO primary macrophages; experiment: Hypotonically-induced currents in SWELL1 KO primary macrophages; conditions: 210 mOsm, FIG. 8
Method: See FIG. 7 (Panel A, Current over time plot; Panel B, Current voltage plot from (A) above). Current over time of hypotonically-induced currents in SWELL1 KO primary macrophages (210 mOsm) was measured along with DCPIB response. […] See FIG. 8 (Panel A, Current over time plot; Panel B, Current voltage plot from (A) above).

[3] = tested on: inflammasome mediated IL-1β secretion from primary macrophages; experiment: Macrophage inflammasome activation (IL-1β) in response to LPS + MSU crystals; conditions: LPS priming followed by MSU, FIG. 5
Text: See FIG. 4 for the structures of the compounds. Mechanical stimulation by MSU crystals function as a physiological activation mechanism for the putatively mechanosensitive SWELL1-LRRC8 channel complex as macrophages engulf MSU and undergo large volume changes. This is analogous to cholesterol crystals that are thought to contribute to NASH by driving simple hepatic steatosis toward fibrotic steatosis. […] First-pass effect from oral delivery, combined with the fact that SN-40X are lipophilic carboxylic acids may conspire to increase hepatic drug concentrations sufficiently to exert anti-inflammatory activity on resident hepatic macrophages and Kupffer cells that contribute to steatohepatitis.

[4] = tested on: RAW 264.7 cells; experiment: LPS-induced inflammatory cytokine mRNA expression in RAW 264.7 cells (qRT-PCR); conditions: 10 μM, 2 hours preincubation, LPS 50 ng/ml for 30 minutes, FIG. 6
Method: RAW 264.7 cells were incubated with either vehicle (DMSO) or SN-401 (10 μM) and SN-406 (10 μM) for 2 hours and subsequently, cells were activated with either LPS (50 ng/ml) alone or along with SN-401 (10 μM) and SN-406 (10 μM) for 30 minutes. After the activation cells were harvested for qRT-PCR analysis (see FIG. 6, panels A-C). Relative mRNA expression for selected inflammatory markers, IL1β, TNF-α and CXCL10 from 3 independent experiments. Statistical significance between the indicated groups were calculated by using a two-tailed Student's t-test. Error bars represent mean ±s.e.m. *, P<0.05, **, P<0.01, ***, P<0.001, ****, P<0.0001.

Row | Structure (SMILES) | inhibition of hypotonically-induced current [1] | response of hypotonically-induced current [2] | suppression of inflammasome mediated IL-1β secretion [3] | expression of LPS-induced inflammatory cytokine production (relative mRNA IL1β, TNF-α, CXCL10) [4]
1 | CCCCC1(C2CCCC2)Cc2cc(OCCCC(=O)O)c(Cl)c(Cl)c2C1=O (stereo not drawn) [DCPIB, 4-[(2-butyl-6,7-dichloro-2-cyclopentyl-1-oxo-2,3-dihydro-1H-inden-5-yl)oxy]butanoic acid] | inhibition | No response |  | 
2 | CCCCC1(C2CCCC2)Cc2cc(OCCCC(=O)O)c(Cl)c(Cl)c2C1=O (stereo not drawn) [SN-401] |  |  | fully suppressed | Inhibit
3 | CCCCC1(C2CCCC2)Cc2cc(OCCCCCC(=O)O)c(Cl)c(Cl)c2C1=O (stereo not drawn) [SN-406] |  |  | fully suppressed | Inhibit
